Laboratory results reported in patent US10166218B2, “3-(1H-indol-2-yl)-1H-pyrazolo[3,4-C]pyridines and therapeutic uses thereof” (Samumed, LLC, priority 2015, dated 2019).

Assays:
Assay type in all cases: cell-based
SW480 colon cancer cells = assay: Cell viability assay (CellTiter-Blue) in SW480 colon cancer cells; conditions: Homo sapiens, 96 h, four days, CellTiter-Blue
Experimental: Representative compounds were screened using the following assay procedure to assess the effect on cell viability as described below.
Each compound was dissolved in DMSO as a 10 mM stock and used to prepare compound source plates. Serial dilution (1:3, 8-point dose-response curves from 10 μM to 0.0045 μM) and compound transfer was performed using the ECHO 550 (Labcyte, Sunnyvale, Calif.) into 96-well clear bottom, black-walled plates (Corning-Costar).
Approximately 2×10^3 SW480 colon cancer cells were seeded into each well and allowed to incubate in the presence or absence of compound for four days at 37° C./5% CO2. Eight replicates of DMSO-treated cells served as controls and cells treated with compound were performed in duplicate.
After incubation, 20 μL of CellTiter-Blue (Promega) was added to each well allowed to incubate for approximately 3 hours. This reagent was a buffered solution which contains resazurin, metabolically active cells were able to reduce rezarurin (blue) into resorufin (pink) which was highly fluorescent. This measured fluorescence was used as a readout for cell viability.
After incubation, the plates were read at Ex 560 nm Em 590 nm (Cytation 3, BioTek). Dose-response curves were generated and EC50 concentration values were calculated using non-linear regression curve fit in the GraphPad Prism (San Diego, Calif.) or Dotmatics' Studies Software (Bishops Stortford, UK). For EC50 of >10 μM, the percent inhibition at 10 μM is provided.

[1] = system: primary human fibroblasts derived from IPF patients (LL29 cells) treated with TGF-β1; α-smooth muscle actin (αSMA); assay: Inhibition of the fibrotic process: αSMA staining in TGF-β1 treated primary human fibroblasts from IPF patients (LL29 cells); conditions: Fibroblast, 96 h, TGF-β1 20 ng/mL, 4 days, % cells positive for αSMA
Source text: Representative compounds were screened using primary human fibroblasts (derived from IPF patients) treated with TGF-β1 to determine their ability to inhibit the fibrotic process.
Primary human fibroblasts derived from IPF patients (LL29 cells) [^1Xiaoqiu Liu, et. al., “Fibrotic Lung Fibroblasts Show Blunted Inhibition by cAMP Due to Deficient cAMP Response Element-Binding Protein Phosphorylation”, Journal of Pharmacology and Experimental Therapeutics (2005), 315(2), 678-687; ^2Watts, K. L., et. al., “RhoA signaling modulates cyclin D1 expression in human lung fibroblasts; implications for idiopathic pulmonary fibrosis”, Respiratory Research (2006), 7(1), 88] were obtained from American Type Culture Collection (ATCC) and expanded in F12 medium supplemented with 15% Fetal Bovine Serum and Penicillin/Streptomycin.
Each compound was dissolved in DMSO as a 10 mM stock and used to prepare compound source plates. Serial dilution (1:2, 11-point dose-response curves from 10 μM to 1.87 nM) and compound transfer was performed using the ECHO 550 (Labcyte, Sunnyvale, Calif.) into 384-well clear bottom assay plates (Greiner Bio-One) with appropriate DMSO backfill for a final DMSO concentration of 0.1%. LL29 cells are plated at 1,500 cells/well in 80 μL/well F12 medium supplemented with 1% Fetal Bovine Serum. One hour after addition of the cells, TGF-β1 (Peprotech; 20 ng/mL) was added to the plates to induce fibrosis (ref. 1 and 2 above). Wells treated with TGF-β1 and containing DMSO were used as controls. Cells were incubated at 37° C. and 5% CO2 for 4 days. Following incubation for 4 days, SYTOX green nucleic acid stain (Life Technologies [Thermo Fisher Scientific]) was added to the wells at a final concentration of 1 μM and incubated at room temperature for 30 min. Cells were then fixed using 4% formaldehyde (Electron Microscopy Sciences), washed 3 times with PBS followed by blocking and permeabilization using 3% Bovine Serum Albumin (BSA; Sigma) and 0.3% Triton X-100 (Sigma) in PBS. Cells were then stained with antibody specific to α-smooth muscle actin (αSMA; Abcam) (ref. 1 and 2 above) in 3% Bovine Serum Albumin (BSA; Sigma) and 0.3% Triton X-100 (Sigma) in PBS, and incubated overnight at 4° C. Cells were then washed 3 times with PBS, followed by incubation with Alexa Flor-647 conjugated secondary antibody (Life Technologies [Thermo Fisher Scientific]) and DAPI at room temperature for 1 hour. Cells were then washed 3 times with PBS and plates were sealed for imaging. αSMA staining was imaged by excitation at 630 nm and emission at 665 nm and quantified using the Compartmental Analysis program on the CellInsight CX5 (Thermo Scientific). Dead or apoptotic cells were excluded from analysis based on positive SYTOX green staining. % of total cells positive for αSMA were counted in each well and normalized to the average of 11 wells treated with TGF-β1 on the same plate using Dotmatics' Studies Software. The normalized averages (fold change over untreated) of 3 replicate wells for each compound concentration were used to create dose-responses curves and EC50 values were calculated using non-linear regression curve fit in the Dotmatics' Studies Software. For EC50 of >10 μM, the percent inhibition at 10 μM is provided.

IL-6 (THP-1 cells) = assay: Inhibition of IL-6 in LPS-stimulated THP-1 human monocyte cells (HTRF); conditions: inhibition of IL-6 in LPS-stimulated THP-1 cells, HTRF, 10-point dose-response starting from 10 μM
Experimental: Human monocyte cell line (THP-1 cells; Catalog # TIB-202, ATCC, Manassas, Va.) were cultured in Roswell Park Memorial Institute (RPMI) 1640 Medium (Catalog #21870-100, Buffalo, N.Y.) with 1% L-glutamine, 1% HEPES, 1% Sodium Pyruvate, 2% Sodium Bicarbonate supplemented with 100 units/mL penicillin, 50 μg/mL streptomycin, 2-mercaptoethanol (0.05 mM) [basal medium] and 10% fetal bovine serum (Catalog #16140089, Life Technologies, Carlsbad, Calif.) at 37° C. and 5% CO2.
THP-1 cells were cultured in basal media with 1% FBS for 24 hours before the start of the assay. Each compound was dissolved in DMSO as a 10 mM stock and used to prepare compound source plates. Serial dilution (1:3, 10-point dose-response curves starting from 10 μM) and compound transfer was performed using the ECHO 550 (Labcyte, Sunnyvale, Calif.) into 384-well white low volume assay plates (Greiner Bio-One) with appropriate DMSO backfill for a final DMSO concentration of 0.1%. THP-1 cells were plated at 5000 cells/well in the 384-well plates and incubated at 37° C. for 2 h. 500 ng/mL of LPS was added after 2 hours and cells were incubated for another 22 hours at 37° C. Plates were spun in a centrifuge for 1 minute at […] and a mixture of anti-IL6 XL665, and anti-IL6 Cryptate diluted in reconstitution buffer (Cisbio Inc.) was added to each well. Following incubation for 3 hrs at room temperature, Homogeneous Time-Resolved Fluorescence (HTRF) was measured using the Envision (Perkin Elmer) at 665 nm and […]. The ratio of fluorescence at 665 nm to 620 nm was used as a readout for IL6 quantification. All samples were processed in duplicate. Readings were normalized to DMSO treated cells and normalized activities were utilized for EC50 calculations using the dose-response log (inhibitor) vs. response-variable slope (four parameters) nonlinear regression feature available in GraphPad Prism 5.0 (or Dotmatics). For EC50 of >10 μM, the percent inhibition at 10 μM is provided.

[2] = system: Wnt activity (Sp5-Luc reporter, TCF/LEF binding sites) in SW480 colon carcinoma cells; assay: Screening assay for Wnt activity: Sp5-Luc reporter gene assay in stably transduced SW480 cells; conditions: Homo sapiens, overnight incubation
Source text: The screening assay for Wnt activity is described as follows. Reporter cell lines can be generated by stably transducing cancer cell lines (e.g., colon cancer) or primary cells (e.g., IEC-6 intestinal cells) with a lentiviral construct that includes a Wnt-responsive promoter driving expression of the firefly luciferase gene.
SW480 colon carcinoma cells were transduced with a lentiviral vector expressing luciferase with a human Sp5 promoter consisting of a sequence of eight TCF/LEF binding sites. SW480 cells stably expressing the Sp5-Luc reporter gene and a hygromycin resistance gene were selected by treatment with 150 μg/mL of hygromycin for 7 days. These stably transduced SW480 cells were expanded in cell culture and used for all further screening activities. Each compound was dissolved in DMSO as a 10 mM stock and used to prepare compound source plates. Serial dilution (1:3, 10-point dose-response curves starting from 10 μM) and compound transfer was performed using the ECHO 550 (Labcyte, Sunnyvale, Calif.) into 384-well white solid bottom assay plates (Greiner Bio-One) with appropriate DMSO backfill for a final DMSO concentration of 0.1%. For Sp5-Luc reporter gene assays, the cells were plated at 4,000 cells/well in 384-well plates with medium containing 1% fetal bovine serum and incubated overnight at 37° C. and 5% CO2. Following incubation, 20 μl of BrightGlo luminescence reagent (Promega) was added to each well of the 384-well assay plates. The plates were placed on an orbital shaker for 2 min and then luminescence was quantified using the Envision (Perkin Elmer) plate reader. Readings were normalized to DMSO only treated cells, and normalized activities were utilized for EC50 calculations using the dose-response log (inhibitor) vs. response-variable slope (four parameters) nonlinear regression feature available in GraphPad Prism 5.0 (or Dotmatics). For EC50 of >10 μM, the percent inhibition at 10 μM is provided.

SMILES | EC50 (SW480 colon cancer cells) | EC50 (IL-6 (THP-1 cells)) | EC50 [2] | EC50 [1]
CC(C)Nc1cncc(-c2cc3c(-c4cc5c(-c6ccncc6)cccc5[nH]4)n[nH]c3cn2)c1 [Compound 124, N-Isopropyl-5-(3-(4-(pyridin-4-yl)-1H-indol-2-yl)-1H-pyrazolo[3,4-c]pyridin-5-yl)pyridin-3-amine] | 5830 nM | 3350 nM | 108 nM | 138 nM
c1ccc(-c2cc3c(-c4cc5c(-c6ccncc6)cccc5[nH]4)n[nH]c3cn2)nc1 [Compound 140, 5-(Pyridin-2-yl)-3-(4-(pyridin-4-yl)-1H-indol-2-yl)-1H-pyrazolo[3,4-c]pyridine] | 370 nM | 481 nM | 485 nM | 319 nM
O=C(Cc1ccccc1)Nc1cncc(-c2cc3c(-c4cc5c(-c6ccccn6)cccc5[nH]4)n[nH]c3cn2)c1 [Compound 150, 2-Phenyl-N-(5-(3-(4-(pyridin-2-yl)-1H-indol-2-yl)-1H-pyrazolo[3,4-c]pyridin-5-yl)pyridin-3-yl)acetamide] | 2970 nM | 2020 nM | 1420 nM | 531 nM
O=C(Nc1cncc(-c2cc3c(-c4cc5c(-c6ccccn6)cccc5[nH]4)n[nH]c3cn2)c1)C1CCCCC1 [Compound 163, N-(5-(3-(4-(Pyridin-2-yl)-1H-indol-2-yl)-1H-pyrazolo[3,4-c]pyridin-5-yl)pyridin-3-yl)cyclohexanecarboxamide] | 938 nM | 2490 nM | 550 nM | 81 nM
c1ccc(-c2cc3c(-c4cc5c(N6CCCCC6)cccc5[nH]4)n[nH]c3cn2)nc1 [Compound 196, 3-(4-(Piperidin-1-yl)-1H-indol-2-yl)-5-(pyridin-2-yl)-1H-pyrazolo[3,4-c]pyridine] | 6060 nM | 8780 nM | 3420 nM | 1160 nM
CN1CCN(c2cccc3[nH]c(-c4n[nH]c5cnc(-c6cncc(N)c6)cc45)cc23)CC1 [Compound 227, 5-(3-(4-(4-Methylpiperazin-1-yl)-H-indol-2-yl)-1H-pyrazolo[3,4-c]pyridin-5-yl)pyridin-3-amine] | 2610 nM | 1080 nM | 1160 nM | 1910 nM

Further lines, with some results ahead:

EC50 (SW480 colon cancer cells) | EC50 (IL-6 (THP-1 cells)) | EC50 [2] | SMILES | EC50 [1]
4650 nM | 4290 nM | 1330 nM | CC(C)CC(=O)Nc1cncc(-c2cc3c(-c4cc5c(N6CCCCC6)cccc5[nH]4)n[nH]c3cn2)c1 [Compound 170, 3-Methyl-N-(5-(3-(4-(piperidin-1-yl)-1H-indol-2-yl)-1H-pyrazolo[3,4-c]pyridin-5-yl)pyridin-3-yl)butanamide] | 902 nM
1080 nM | 167 nM | 553 nM | CCNCc1cncc(-c2cc3c(-c4cc5c(N6CCCCC6)cccc5[nH]4)n[nH]c3cn2)c1 [Compound 174, N-((5-(3-(4-(Piperidin-1-yl)-1H-indol-2-yl)-1H-pyrazolo[3,4-c]pyridin-5-yl)pyridin-3-yl)methyl)ethanamine] | 650 nM
7140 nM | 8890 nM | 3040 nM | CC(C)(C)C(=O)Nc1cncc(-c2cc3c(-c4cc5c(N6CCCCC6)cccc5[nH]4)n[nH]c3cn2)c1 [Compound 176, N-(5-(3-(4-(Piperidin-1-yl)-1H-indol-2-yl)-1H-pyrazolo[3,4-c]pyridin-5-yl)pyridin-3-yl)pivalamide] | 700 nM
1730 nM | 1000 nM | 362 nM | CC(C)Nc1cncc(-c2cc3c(-c4cc5c(N6CCCCC6)cccc5[nH]4)n[nH]c3cn2)c1 [Compound 180, N-Isopropyl-5-(3-(4-(piperidin-1-yl)-1H-indol-2-yl)-1H-pyrazolo[3,4-c]pyridin-5-yl)pyridin-3-amine] | 267 nM
3130 nM | 1940 nM | 1040 nM | CN1CCN(c2cccc3[nH]c(-c4n[nH]c5cnc(-c6cncc(NC(=O)Cc7ccccc7)c6)cc45)cc23)CC1 [Compound 234, N-(5-(3-(4-(4-Methylpiperazin-1-yl)-H-indol-2-yl)-1H-pyrazolo[3,4-c]pyridin-5-yl)pyridin-3-yl)-2-phenylacetamide] | 1250 nM
